This note sets out measurements from US9512178B2, “Neurogenic brain-derived neurotrophic factor peptides” (Research Foundation for Mental Hygiene, Inc., priority 2012, dated 2016).

Experiment [1] concerns the target T1, TrkB receptor (Mus musculus, UniProt P15209).
T1 construct: endogenous in cells; host or cells: primary hippocampal neurons from embryonic day 18 C57BL/6 mice
The experiment can be described thus: TrkB phosphorylation (Tyr 706) and TrkB level in primary E18 hippocampal cells, with or without K252a. To be noted: 1 μM; for increase in the phosphorylation of the TrkB receptor: 5 min, without K252a; for TrkB levels / activation of TrkB (pTrkB Tyr 706 normalized to total TrkB): 1 h. The experiment is classed as cell-based. The protocol:
Peptides were dissolved in water in serial dilutions of 10 mM, 1 mM, 100 μM and 10 μM from which the necessary amount was added directly to the culture medium to a final concentration of 0.05 μM, 1 μM, or 10 μM. The BDNF (Peprotech, NJ, USA) was used as a reference in concentrations of 20 ng/ml (0.79 nM) and 100 ng/ml (3.95 nM). Cycloheximide (CHX) (Sigma-Aldrich, St Louis, Mo., USA) was used for blocking protein synthesis. CHX original stock was 100 mg/ml (355.4 mM) in DMSO; from a second stock of 35.54 mM in DMSO, the dilutions were made to the final concentrations of 100 μM. The K252a (CALBIOCHEM/EMD) was used to inhibit the TrkB Receptor. From a stock of 100 μM in DMSO, K252a was diluted to a final working concentration of 200 nM. The E18 primary hippocampal cells were pre-treated with CHX or K252a 1 h prior to the addition of the peptides or BDNF and a time course of these treatments for 15 min, 60 min and 2 days was studied.
Following treatment in 6-well plates, cells were washed 2× in glucose buffered saline, GBS (5.4 mM KCl, 138 mM NaCl, 22 mM glucose, and 2 mM Na—KPO pH 7.2), and then lysed by 5 min incubation on ice in 100 or 150 μl of ice-cold RIPA buffer (PBS, 1% w/v NP-40 from Fisher Scientific, 0.1% w/v SDS, and 0.5% w/v sodium desoxycholate) containing 1 mM AEBSF (Gold Biotechnology, St. Louis, Mo., USA), 10 μg/ml aprotinin (Sigma-Aldrich, St. Louis, Mo., USA), and 20 μg/ml of leupeptin and pepstatin (US Biochemicals, Cleveland, Ohio, USA), and phosphatase inhibitors: NaF, Na orthovanadate, (3-glycerophosphate, and microcystein (Sigma-Aldrich, St. Louis, Mo., USA). Extracts were prepared by collecting and pooling a minimum of 2 wells by scraping, and lysates were centrifuged at 20,000×g for 10 min at 4° C. Protein concentration of each cell lysate was determined using the BCA kit (Thermo Scientific, Rockford, Ill., USA). The lysates (7.5-20 μg total protein) were separated on 10% SDS-PAGE gels (except for BDNF where 12% gels were employed) and transferred to 0.45 μm PVDF membrane (Pall, Pensacola, Fla., USA) for probing with antibodies as noted. Blots were blocked for 1 hr at 37° C. in 1×TBST (0.05% Tween 20 in TBS) containing 5% w/v blotting grade dry milk (Bio-rad, Hercules, Calif., USA), incubated in primary antibody overnight in blocking buffer at 4° C., washed 3×10 min in TBST at room temperature, followed by incubation with secondary antibody, i.e., peroxidase-conjugated anti-mouse or anti rabbit IgG (Jackson ImmunoResearch Laboratories, West Grove, Pa., USA) diluted in blocking buffer. Blots were washed 3×10 min in TBST and immunoreactive protein bands were visualized with enhanced chemiluminescence (ECL) reagents (Pierce, Rockford, Ill., USA). The ECL films of the blots were scanned and analyzed using Multi Gauge software version 3.0 (Fujifilm, Tokyo, Japan).
The following primary antibodies were used: rabbit polyclonal anti-NFM (1:1000; Chemicon/Millipore, Billerica, Mass., USA); mouse monoclonal anti-NeuN, clone A60 (1:500; Millipore, Billerica, Mass., USA); rabbit polyclonal anti-Tuj-1, (3—III-tubulin (Covance; 1:800, Emeryville, Calif., USA); mouse monoclonal SMI 52 to the adult isoforms of MAP-2, MAP2a,b (1:1000; Covance, Emeryvilly, Calif., USA); rabbit polyclonal anti-Synapsin I (1:2000; Stressgen, Farmingdale, N.Y., USA); rabbit monoclonal anti-PSD95 (1:1000; Cell signaling, Danvers, Mass., USA); anti tau 92e (1:10000); mouse monoclonal anti-BDNF (1:1000; Calbiochem, Gibbstown, N.J., USA); rabbit polyclonal anti-TrkB (total) (1:500; Santa Cruz Biotechnology, Santa Cruz, Calif., USA); rabbit polyclonal anti-pTrkB (Tyr706) (1:400; Santa Cruz Biotechnology, Santa Cruz, Calif., USA), TrkC (1:1000; Cruz Biotechnology, Santa Cruz, Calif., USA); and pTrkY490 (1:500; Upstate USA Inc., Charlottesville, Va., USA). For loading control, the blots were developed with rabbit polyclonal antibody to GAPDH (1:2000; Santa Cruz Biotechnology, Santa Cruz, Calif., USA). […]

The test system of experiment [2] is primary E18 hippocampal cells. The experiment is described as follows: Rescue of H2O2-induced neurotoxicity (LDH assay). The experiment is classed as cell-based, mouse. The protocol:
Evaluation of cell death and cell viability was performed using the LDH kit (Promega, Madison Wis., USA), following manufactures instructions. Percentages of cell death and cell viability were plotted separately.
In order to evaluate the potential neuroprotective effect of BDNF peptides, the primary E18 hippocampal cells were challenged with 0, 60, 80 and 100 μM H2O2 for 6 hours, and then cells were washed with culture medium and fresh culture medium was added containing the peptides B-5 or B-3 or BDNF or BDNF plus B-3 (see FIGS. 4A and 4B). After 24 hours, the cell viability was assayed by the LDH method.

The mark [3] stands for this setting: 80 μM H2O2 6 h, then treatment 24 h.

“Also recorded” adds a separate entry of the source.

T1 sequence (P15209 32-821): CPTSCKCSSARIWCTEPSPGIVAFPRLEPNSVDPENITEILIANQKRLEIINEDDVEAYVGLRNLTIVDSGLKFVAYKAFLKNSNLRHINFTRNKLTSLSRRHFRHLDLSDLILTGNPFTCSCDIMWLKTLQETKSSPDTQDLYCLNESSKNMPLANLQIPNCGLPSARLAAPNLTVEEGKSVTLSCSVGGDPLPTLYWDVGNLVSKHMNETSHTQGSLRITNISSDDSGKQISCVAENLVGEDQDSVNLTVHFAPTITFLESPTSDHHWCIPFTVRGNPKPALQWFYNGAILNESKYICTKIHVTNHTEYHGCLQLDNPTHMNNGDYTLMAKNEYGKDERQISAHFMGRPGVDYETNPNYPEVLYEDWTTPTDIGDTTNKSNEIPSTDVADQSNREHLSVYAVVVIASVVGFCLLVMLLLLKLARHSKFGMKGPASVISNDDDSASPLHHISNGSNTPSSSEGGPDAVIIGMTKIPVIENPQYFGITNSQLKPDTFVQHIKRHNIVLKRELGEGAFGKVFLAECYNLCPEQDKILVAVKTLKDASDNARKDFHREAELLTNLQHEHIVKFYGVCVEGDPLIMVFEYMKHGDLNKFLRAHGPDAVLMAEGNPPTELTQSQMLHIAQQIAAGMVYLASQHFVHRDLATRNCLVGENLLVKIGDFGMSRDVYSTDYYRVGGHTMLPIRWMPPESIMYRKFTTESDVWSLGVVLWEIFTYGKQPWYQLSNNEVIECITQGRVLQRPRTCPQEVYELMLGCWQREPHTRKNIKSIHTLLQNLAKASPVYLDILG

Turning to Ac-I-K-R-G-CONH2 [Peptide B-5], in experiment [1], the “increase in the phosphorylation of the TrkB receptor” value is reported as “significant”, the TrkB levels result is recorded as “increased” and the “activation of TrkB (pTrkB Tyr 706 normalized to total TrkB)” value was “relatively weak activation”. In addition, the “cell viability (LDH)” value in experiment [2] (60 μM H2O2 6 h, then treatment 24 h) is listed as “significantly increased the cell viability”. Moreover, in experiment [2] (setting [3]), the “cell death (LDH)” value is given as “significantly reduced cell death; also recorded: moderate effect in reducing the percentage of cell death” and the “cell viability (LDH)” value is on record as “significantly increased the cell viability”.
On to Ac-S-KKR-CONH2 [Peptide B-3], for which, in experiment [1], the “increase in the phosphorylation of the TrkB receptor” value is recorded as “significant”, the TrkB levels result is listed as “increased” and the “activation of TrkB (pTrkB Tyr 706 normalized to total TrkB)” value is listed as “relatively weak activation”. Besides, the “potentiation of the neuroprotective effect of BDNF” value in experiment [2] (after H2O2 exposure, combined with BDNF) is given as “significantly potentiated; also recorded: potentiates the neuroprotective effect of BDNF”. For the same substance, the “neuroprotective effect of the peptide alone” value in experiment [2] (after H2O2 exposure, without BDNF) is given as “not sufficient to exert a significant effect”.
